assay: Inhibition of amyloid beta (1 to 40) aggregation assessed as emission of thioflavin T fluorescence in presence of 1,1,1,3,3,3-hexaflouro-2-propanol

In order of rising IC50:
1. O=c1c(O)c(-c2ccc(O)c(O)c2)oc2cc(O)cc(O)c12 [QUERCETIN]  0.8 µM
2. O=C(CNC(=O)c1cc(O)c(O)c(O)c1)Nc1ccc(Oc2cccc(NC(=O)CNC(=O)c3cc(O)c(O)c(O)c3)c2)cc1  1.5 µM
3. O=C(Nc1ccc(Oc2cccc(NC(=O)c3cc(O)c(O)c(O)c3)c2)cc1)c1cc(O)c(O)c(O)c1  12 µM
4. O=C(CNC(=O)c1cc(O)c(O)c(O)c1)NCC(=O)Nc1ccc(Oc2cccc(NC(=O)CNC(=O)CNC(=O)c3cc(O)c(O)c(O)c3)c2)cc1  28 µM

assay: Inhibition of amyloid beta (1 to 40) aggregation assessed as emission of thioflavin T fluorescence at 100 uM in presence of 1,1,1,3,3,3-hexaflouro-2-propanol

In order of falling inhibition:
1. O=C(CNC(=O)c1cc(O)c(O)c(O)c1)NCC(=O)Nc1ccc(Oc2cccc(NC(=O)CNC(=O)CNC(=O)c3cc(O)c(O)c(O)c3)c2)cc1  80%
2. O=C(CNC(=O)c1cc(O)c(O)c(O)c1)Nc1ccc(Oc2cccc(NC(=O)CNC(=O)c3cc(O)c(O)c(O)c3)c2)cc1  79%
3. O=C(Nc1ccc(Oc2cccc(NC(=O)c3cc(O)c(O)c(O)c3)c2)cc1)c1cc(O)c(O)c(O)c1  70%
4. O=C(NCc1cccc(CNC(=O)c2cc(O)c(O)c(O)c2)c1)c1cc(O)c(O)c(O)c1  61%
5. O=C(CNC(=O)c1cc([N+](=O)[O-])cc([N+](=O)[O-])c1)Nc1ccc(Oc2cccc(NC(=O)CNC(=O)c3cc([N+](=O)[O-])cc([N+](=O)[O-])c3)c2)cc1  44%
6. COc1cc(C(=O)NCC(=O)NCC(=O)Nc2ccc(Oc3cccc(NC(=O)CNC(=O)CNC(=O)c4cc(OC)c(OC)c(OC)c4)c3)cc2)cc(OC)c1OC  40%
7. O=C(CNC(=O)c1cc(O)c(O)c(O)c1)NCc1cccc(CNC(=O)CNC(=O)c2cc(O)c(O)c(O)c2)c1  39%
8. O=C(O)CNC(=O)CNC(=O)CNC(=O)c1cc([N+](=O)[O-])cc([N+](=O)[O-])c1  36%
9. O=C(CNC(=O)c1cc([N+](=O)[O-])cc([N+](=O)[O-])c1)NCc1cccc(CNC(=O)CNC(=O)c2cc([N+](=O)[O-])cc([N+](=O)[O-])c2)c1  33%
10. COc1cc(C(=O)NCC(=O)NCC(=O)NCc2cccc(CNC(=O)CNC(=O)CNC(=O)c3cc(OC)c(OC)c(OC)c3)c2)cc(OC)c1OC  31%
11. O=C(CNC(=O)c1cc([N+](=O)[O-])cc([N+](=O)[O-])c1)NCC(=O)Nc1ccc(Oc2cccc(NC(=O)CNC(=O)CNC(=O)c3cc([N+](=O)[O-])cc([N+](=O)[O-])c3)c2)cc1  30%
12. COc1cc(C(=O)NCC(=O)NCc2cccc(CNC(=O)CNC(=O)c3cc(OC)c(OC)c(OC)c3)c2)cc(OC)c1OC  28%
13. O=C(CNC(=O)CNC(=O)c1cc([N+](=O)[O-])cc([N+](=O)[O-])c1)NCc1cccc(CNC(=O)CNC(=O)CNC(=O)c2cc([N+](=O)[O-])cc([N+](=O)[O-])c2)c1  23%
14. COc1cc(C(=O)NCC(=O)NCC(=O)NCC(=O)Nc2ccc(Oc3cccc(NC(=O)CNC(=O)CNC(=O)CNC(=O)c4cc(OC)c(OC)c(OC)c4)c3)cc2)cc(OC)c1OC  20%
15. O=C(CNC(=O)CNC(=O)c1ccccc1)NCC(=O)NCc1cccc(CNC(=O)CNC(=O)CNC(=O)CNC(=O)c2ccccc2)c1  19%
16. COc1cc(C(=O)NCc2cccc(CNC(=O)c3cc(OC)c(OC)c(OC)c3)c2)cc(OC)c1OC  19%
17. O=C(CNC(=O)C1CCCCC1)NCC(=O)Nc1ccc(Oc2cccc(NC(=O)CNC(=O)CNC(=O)C3CCCCC3)c2)cc1  17%
18. COc1cc(C(=O)NCC(=O)NCC(=O)NCC(=O)NCc2cccc(CNC(=O)CNC(=O)CNC(=O)CNC(=O)c3cc(OC)c(OC)c(OC)c3)c2)cc(OC)c1OC  15%
19. O=C(CNC(=O)CNC(=O)c1cc([N+](=O)[O-])cc([N+](=O)[O-])c1)NCC(=O)NCc1cccc(CNC(=O)CNC(=O)CNC(=O)CNC(=O)c2cc([N+](=O)[O-])cc([N+](=O)[O-])c2)c1  13%
20. COc1cc(C(=O)NCC(=O)NCC(=O)NCC(=O)O)cc(OC)c1OC  11%
21. O=C(CNC(=O)CNC(=O)c1ccccc1)NCc1cccc(CNC(=O)CNC(=O)CNC(=O)c2ccccc2)c1  10%
22. COc1cc(C(=O)NCC(=O)Nc2ccc(Oc3cccc(NC(=O)CNC(=O)c4cc(OC)c(OC)c(OC)c4)c3)cc2)cc(OC)c1OC  9%
23. O=C(CNC(=O)CNC(=O)c1cc([N+](=O)[O-])cc([N+](=O)[O-])c1)NCCCNCCCNC(=O)CNC(=O)CNC(=O)c1cc([N+](=O)[O-])cc([N+](=O)[O-])c1  9%
24. O=C(CNC(=O)c1ccccc1)NCc1cccc(CNC(=O)CNC(=O)c2ccccc2)c1  9%
25. O=C(CNC(=O)c1ccccc1)Nc1ccc(Oc2cccc(NC(=O)CNC(=O)c3ccccc3)c2)cc1  7%
26. O=C(CNC(=O)CNC(=O)c1cc(O)c(O)c(O)c1)NCc1cccc(CNC(=O)CNC(=O)CNC(=O)c2cc(O)c(O)c(O)c2)c1  5%
27. O=C(CNC(=O)CNC(=O)c1cc([N+](=O)[O-])cc([N+](=O)[O-])c1)NCC(=O)Nc1ccc(Oc2cccc(NC(=O)CNC(=O)CNC(=O)CNC(=O)c3cc([N+](=O)[O-])cc([N+](=O)[O-])c3)c2)cc1  4%
28. O=C(CNC(=O)CNC(=O)c1cc(O)c(O)c(O)c1)NCC(=O)NCc1cccc(CNC(=O)CNC(=O)CNC(=O)CNC(=O)c2cc(O)c(O)c(O)c2)c1  4%
29. O=C(NCc1cccc(CNC(=O)c2cc([N+](=O)[O-])cc([N+](=O)[O-])c2)c1)c1cc([N+](=O)[O-])cc([N+](=O)[O-])c1  4%
30. O=C(NCc1cccc(CNC(=O)c2ccccc2)c1)c1ccccc1  3%
31. Nc1cccc(Oc2ccc(NC(=O)CNC(=O)CNC(=O)c3cc([N+](=O)[O-])cc([N+](=O)[O-])c3)cc2)c1  0%
32. COc1cc(C(=O)NCCCCC(=O)Nc2ccc(Oc3cccc(NC(=O)CCCCNC(=O)c4cc(OC)c(OC)c(OC)c4)c3)cc2)cc(OC)c1OC  0%
33. O=C(CNC(=O)c1ccccc1)NCC(=O)Nc1ccc(Oc2cccc(NC(=O)CNC(=O)CNC(=O)c3ccccc3)c2)cc1  -3%
34. O=C(CNC(=O)CNC(=O)c1ccccc1)NCC(=O)Nc1ccc(Oc2cccc(NC(=O)CNC(=O)CNC(=O)CNC(=O)c3ccccc3)c2)cc1  -3%

Reference: ChEMBL document CHEMBL1157205, “Design, synthesis, and biological evaluation of glycine-based molecular tongs as inhibitors of Abeta1-40 aggregation in vitro” (Bioorg Med Chem, 2008)
